The values below come from ChEMBL document CHEMBL5257135, “Synthesis of Artesunic Acid-Coumarin Hybrids as Potential Antimelanoma Agents” (ACS Med Chem Lett, 2023).

Data set [1] can be described thus: Cytotoxicity against human C3PV cells assessed as reduction in cell viability incubated for 24 hrs by MTT assay. In kind it is toxicity, cell-based. The conditions noted are these: for IC50 at 24 h: human, C3PV cells; for pIC50: c3pv.
The test system of data set [2] is SK-MEL3. The data set can be described thus: Anticancer activity against human SK-MEL3 cells assessed as reduction in cell viability incubated for 24 hrs by MTT assay. The conditions noted are these: SK-MEL3, 24 h. In kind it is functional, cell-based.
Data set [3] concerns SK-MEL-28. The data set can be described thus: Anticancer activity against human SK-MEL-28 cells assessed as reduction in cell viability incubated for 24 hrs by MTT assay. The data set is classed as functional, cell-based. To be noted: SK-MEL-28, 24 h.
Data set [4] can be described thus: Selectivity index, ratio of IC50 for cytotoxicity against human C3PV cells to IC50 for anticancer activity against human SK-MEL3 cells. The conditions noted are these: C3PV cells and SK-MEL3 cells, read-out: Ratio IC50. The data set is classed as toxicity, cell-based.
Data set [5] can be described thus: Cytotoxicity against human C3PV cells assessed as reduction in cell proliferation at 0.05 uM to incubated for 24 hrs by trypan blue exclusion assay. The data set is classed as toxicity, cell-based.
In data set [6] the test system is SK-MEL-28. The data set can be described thus: Antiproliferative activity against human SK-MEL-28 cells assessed as reduction in cell proliferation at 0.05 uM to incubated for 24 hrs by trypan blue exclusion assay. The data set is classed as functional, cell-based.
Data set [7] relates to SK-MEL3. Briefly: Antiproliferative activity against human SK-MEL3 cells assessed as reduction in cell proliferation at 0.05 uM to incubated for 24 hrs by trypan blue exclusion assay. The data set is classed as functional, cell-based.
Data set [8] concerns C3PV. Briefly: Induction of apoptosis in human C3PV cells assessed as dead cells at 0.05 uM by fluorescein diacetate, propidium iodide, and Hoechst staining based confocal microscopy. The data set is classed as functional, cell-based.
Data set [9] has as its system SK-MEL3. Briefly: Induction of apoptosis in human SK-MEL3 cells assessed as dead cells at 0.05 uM by fluorescein diacetate, propidium iodide, and Hoechst staining based confocal microscopy. In kind it is functional, cell-based.
In data set [10] the test system is SK-MEL-28. The data set can be described thus: Induction of apoptosis in human SK-MEL-28 cells assessed as dead cells at 0.05 uM by fluorescein diacetate, propidium iodide, and Hoechst staining based confocal microscopy. In kind it is functional, cell-based.
Data set [11] concerns SK-MEL3. The data set can be described thus: Anticancer activity against human SK-MEL3 cells assessed as reduction in cell viability incubated for 24 hrs in presence of deferoxamine by MTT assay. The data set is classed as functional, cell-based. To be noted: SK-MEL3, 24 h.
Data set [12] is described as follows: Cytotoxicity against human C3PV cells assessed as reduction in cell proliferation at 0.015 uM to incubated for 24 hrs by trypan blue exclusion assay. The data set is classed as toxicity, cell-based.
Data set [13] concerns SK-MEL-28. Briefly: Antiproliferative activity against human SK-MEL-28 cells assessed as reduction in cell proliferation at 0.015 uM to incubated for 24 hrs by trypan blue exclusion assay. In kind it is functional, cell-based.
The subject of data set [14] is SK-MEL3. The data set can be described thus: Antiproliferative activity against human SK-MEL3 cells assessed as reduction in cell proliferation at 0.015 uM to incubated for 24 hrs by trypan blue exclusion assay. In kind it is functional, cell-based.
For data set [15], the system named is C3PV. The data set can be described thus: Induction of apoptosis in human C3PV cells assessed as dead cells at 0.015 uM by fluorescein diacetate, propidium iodide, and Hoechst staining based confocal microscopy. In kind it is functional, cell-based.
Data set [16] concerns SK-MEL3. Briefly: Induction of apoptosis in human SK-MEL3 cells assessed as dead cells at 0.015 uM by fluorescein diacetate, propidium iodide, and Hoechst staining based confocal microscopy. In kind it is functional, cell-based.
Data set [17] relates to SK-MEL-28. The data set can be described thus: Induction of apoptosis in human SK-MEL-28 cells assessed as dead cells at 0.015 uM by fluorescein diacetate, propidium iodide, and Hoechst staining based confocal microscopy. The data set is classed as functional, cell-based.
Data set [18] deals with SK-MEL3. Briefly: Anticancer activity against human SK-MEL3 cells assessed as reduction in cell viability incubated for 24 hrs in presence of Artesunic acid by MTT assay. The data set is classed as functional, cell-based. The conditions noted are these: SK-MEL3, 24 h.
Data set [19] in a line: Drug localization in human SK-MEL3 cell nucleus incubated for 24 hrs by propidium iodide staining based Confocal microscopy. The conditions noted are these: sk-mel3, 24 h. In kind it is ADME, subcellular.

pIC50: −log10 of the molar value. Calls of active or inactive are those of the source. The calls are words filed in the database; no cut-off is given here.

For the compound `C[C@H]1[C@H](OC(=O)CCC(=O)Oc2ccc3ccc(=O)oc3c2)O[C@@H]2C[C@]3(C)CC[C@H]4[C@H](C)CC[C@@H]1[C@@]24OO3`, the IC50 at 24 h in data set [1] is 216 µM. The negative-log IC50 (pIC50) was 7.30 in data set [2], 5.66 in data set [3] and 6.93 in [11]. The selectivity ratio in [4] was found to be 4320. In data set [5], the Activity result is listed as “Non-Toxic”. Also, the outcome in data set [6] and in data set [8] was inactive. Moreover, the outcome in data set [7], in data set [9] and in data set [10] was Active.
Consider `O=c1ccc2cc(O)c(O)cc2o1` [ESCULETIN], for which, in data set [1], the IC50 at 24 h worked out at 25.8 µM. Moreover, the values for the pIC50 in data set [2] and in data set [3] were 5.77 and 6.02, respectively. The selectivity ratio in [4] came out at 15.2.
Take `C[C@H]1[C@H](OC(=O)CCC(=O)Oc2ccc3oc(=O)ccc3c2)O[C@@H]2C[C@]3(C)CC[C@H]4[C@H](C)CC[C@@H]1[C@@]24OO3`: the IC50 at 24 h in data set [1] stood at 132 µM. In addition, the pIC50 is 7.82 in data set [2], 3.24 in [3] and 9.00 in data set [11]. For the same compound, the selectivity ratio in data set [4] was 8810. Further, the Activity entry in data set [12] is “Non-Toxic”. Also, the result in data set [13], in [15] and in [17] was inactive. In addition, the outcome in data set [14] and in data set [16] was Active.
`C[C@H]1[C@H](OC(=O)CCC(=O)Oc2ccc3c(C(F)(F)F)cc(=O)oc3c2)O[C@@H]2C[C@]3(C)CC[C@H]4[C@H](C)CC[C@@H]1[C@@]24OO3`: the pIC50 in data set [1] is 2.97; in data set [2] it was 5.44; in [3], 5.16. Further, in data set [4], the selectivity ratio amounted to 294.
Consider `O=c1ccc2cc(O)ccc2o1` [6-HYDROXYCOUMARIN], for which the IC50 at 24 h in data set [1] came to 2.95 µM. The results for the negative-log IC50 (pIC50) in [2], in data set [3] and in data set [18] were 5.73, 6.35 and 5.94, respectively. The selectivity ratio in data set [4] is 1.6.
Take `C[C@H]1[C@H](OC(=O)CCC(=O)Oc2cc3ccccc3oc2=O)O[C@@H]2C[C@]3(C)CC[C@H]4[C@H](C)CC[C@@H]1[C@@]24OO3`: the IC50 at 24 h in data set [1] was 5.64 µM. Besides, the pIC50 was 6.00 in data set [2] and 4.42 in [3]. The selectivity ratio in data set [4] turned out to be 5.64.
In the case of `O=c1ccc2ccc(O)cc2o1` [UMBELLIFERONE], the IC50 at 24 h in data set [1] amounted to 20.9 µM. Besides, the negative logarithm of the IC50 (pIC50) in data set [2] is 5.68; in data set [3], 6.32; in data set [18] it was 5.80. The selectivity ratio in data set [4] stood at 9.9.
Take `O=c1cc(C(F)(F)F)c2ccc(O)cc2o1`: the IC50 at 24 h in data set [1] came to 2.5 µM. Also, the pIC50 in [2] was 6.24; in data set [3] it was 5.96. The selectivity ratio in data set [4] came to 4.3.
Consider `Nc1ccc2c(C(F)(F)F)cc(=O)oc2c1`, for which the IC50 at 24 h in [1] came out at 27.4 µM. Also, the values for the pIC50 in data set [2] and in data set [3] were 6.03 and 6.01, respectively. The selectivity ratio in data set [4] is 29.4. The Drug uptake entry in data set [19] is given as “Active”.
As for `C[C@H]1[C@H](OC(=O)CCC(=O)Oc2cc(=O)oc3ccccc23)O[C@@H]2C[C@]3(C)CC[C@H]4[C@H](C)CC[C@@H]1[C@@]24OO3`, the IC50 at 24 h in [1] is 321 µM. For the same compound, the pIC50 in [2] is 5.57; in data set [3], 4.14. Besides, in data set [4], the selectivity ratio was 119.
For `CC(=O)O[C@H]1C(=O)[C@@]2(C)[C@H]([C@H](OC(=O)c3ccccc3)[C@]3(O)C[C@H](OC(=O)[C@H](O)[C@@H](NC(=O)c4ccccc4)c4ccccc4)C(C)=C1C3(C)C)[C@]1(OC(C)=O)CO[C@@H]1C[C@@H]2O` [PACLITAXEL] the same measures were 78.9 µM, 5.33, 5.97 and 16.7.
As for `O=c1oc2ccccc2cc1O` [3-HYDROXYCOUMARIN], the IC50 at 24 h in data set [1] turned out to be 12.5 µM. For the same compound, the values for the pIC50 in data set [2] and in data set [3] were 5.17 and 5.92, respectively. Moreover, the selectivity ratio in data set [4] was 1.8.
Take `COc1cc2ccc(=O)oc2cc1O` [SCOPOLETIN]: the IC50 at 24 h in data set [1] worked out at 1.6 µM. For the same compound, the figures for the pIC50 in [2] and in [3] were 5.82 and 5.46, respectively. Further, in data set [4], the selectivity ratio was determined as 1.1.
Take `C[C@H]1[C@H](OC(=O)CCC(=O)Oc2cc3ccc(=O)oc3cc2O)O[C@@H]2C[C@]3(C)CC[C@H]4[C@H](C)CC[C@@H]1[C@@]24OO3`: the pIC50 in data set [1] was 3.16; in data set [2], 5.72; in data set [3], 4.01. In addition, the selectivity ratio in data set [4] is 361.
For the compound `C[C@H]1[C@H](OC(=O)CCC(=O)Nc2ccc3c(C(F)(F)F)cc(=O)oc3c2)O[C@@H]2C[C@]3(C)CC[C@H]4[C@H](C)CC[C@@H]1[C@@]24OO3`, in data set [1], the concentration for half-maximal inhibition (IC50) at 24 h worked out at 0.21 µM. Further, the pIC50 was 5.89 in data set [2] and 2.96 in data set [3]. Moreover, in data set [4], the selectivity ratio was 0.16. Moreover, the Drug uptake entry in [19] is “Active”.
As for `COc1cc2ccc(=O)oc2cc1OC(=O)CCC(=O)O[C@@H]1O[C@@H]2C[C@]3(C)CC[C@H]4[C@H](C)CC[C@@H]([C@H]1C)[C@@]24OO3`, in [1], the IC50 at 24 h was 3.05 µM. The results for the pIC50 in data set [2] and in data set [3] were 5.39 and 3.88, respectively. The selectivity ratio in [4] came out at 0.74.
The corresponding values for `Cc1cc(=O)oc2cc(OC(=O)CCC(=O)O[C@@H]3O[C@@H]4C[C@]5(C)CC[C@H]6[C@H](C)CC[C@@H]([C@H]3C)[C@@]46OO5)ccc12` are 0.66 µM, 5.59, 4.87 and 0.25.
The corresponding values for `O=c1cc(O)c2ccccc2o1` [4-HYDROXYCOUMARINS] are 0.6 µM, 5.68, 5.89 and 0.29.
With `Cc1cc(=O)oc2cc(O)ccc12` [HYMECROMONE], in data set [1], the IC50 at 24 h turned out to be 7 µM. Also, the pIC50 in data set [2] is 5.80; in data set [3], 6.24. Further, in data set [4], the selectivity ratio amounted to 4.37.
